# Data taken from patent publication US12116325B2, “Increased longevity of the nitrogen content of soil through improved liquid delivery formulations of nitrification inhibitors designed for urea and manure based fertilizers” (SOILGENIC TECHNOLOGIES, LLC, priority 2014, dated 2024).
# Experiment: Degradation study of actives in DMSO at 50° C. by LC
# Assay type: physicochemical
# Protocol: A degradation study was performed using 2-chloro-6-(trichloromethyl)pyridine/nBPT in DMSO.
# A 2-chloro-6-(trichloromethyl)pyridine/NBPT=1/1(w/w) mixture was dissolved in DMSO. LC (liquid chromatography) was performed to analyze the content decrease versus time. All samples were sealed and protected under N2. All samples were stored 50° C.
# A C18 column was used, and measured at 255 nm. Retention time: 40 min.
# Temperature: 30° C. 15 μL injection. Peak area percentages were calculated to analyze the concentration and are shown in below Table 3.
structure (smiles),measurement,setting,value
CCCCNP(N)(N)=S [n-butylthiophosphoric triamide],"Content remaining, LC peak area percentage","Week 1, 1/1 (w/w) mixture in DMSO, 50° C., sealed under N2",100%
same,"Content remaining, LC peak area percentage","Week 2, DMSO, 50° C.",99.6%
same,"Content remaining, LC peak area percentage","Week 3, DMSO, 50° C.",98%
same,"Content remaining, LC peak area percentage","Week 4, DMSO, 50° C.",97.6%
same,"Content remaining, LC peak area percentage","Week 6, DMSO, 50° C.",96.5%
same,"Content remaining, LC peak area percentage","Week 7, DMSO, 50° C.",95.3%
same,"Content remaining, LC peak area percentage","Week 8, DMSO, 50° C.",94.7%
same,"Content remaining, LC peak area percentage","Week 9, DMSO, 50° C.",93%
same,"Content remaining, LC peak area percentage","Week 10, DMSO, 50° C.",92.2%
same,"Content remaining, LC peak area percentage","Week 11, DMSO, 50° C.",92.1%
same,"Content remaining, LC peak area percentage","Week 12, DMSO, 50° C.",91.7%
same,"Content remaining, LC peak area percentage","Week 13, DMSO, 50° C.",91%
same,"Content remaining, LC peak area percentage","Week 14, DMSO, 50° C.",90.88%
same,"Content remaining, LC peak area percentage","Week 15, DMSO, 50° C.",90.01%
same,"Content remaining, LC peak area percentage","Week 16, DMSO, 50° C.",99.55%
same,"Content remaining, LC peak area percentage","Week 17, DMSO, 50° C.",89.06%
same,"Content remaining, LC peak area percentage","Week 18, DMSO, 50° C.",88.6%
Clc1cccc(C(Cl)(Cl)Cl)n1 [2-chloro-6-(trichloromethyl)pyridine],"Content remaining, LC peak area percentage",1 week,100%
same,"Content remaining, LC peak area percentage",2 week,99%
same,"Content remaining, LC peak area percentage",3 week,99.4%
same,"Content remaining, LC peak area percentage",4 week,98.3%
same,"Content remaining, LC peak area percentage",6 week,95.3%
same,"Content remaining, LC peak area percentage",7 week,93.2%
same,"Content remaining, LC peak area percentage",8 week,92.3%
same,"Content remaining, LC peak area percentage",9 week,90.8%
same,"Content remaining, LC peak area percentage",10 week,88%
same,"Content remaining, LC peak area percentage",11 week,86.7%
same,"Content remaining, LC peak area percentage",12 week,86.4%
same,"Content remaining, LC peak area percentage",13 week,85%
same,"Content remaining, LC peak area percentage",14 week,84.33%
same,"Content remaining, LC peak area percentage",15 week,83.56%
same,"Content remaining, LC peak area percentage",16 week,81.45%
same,"Content remaining, LC peak area percentage",17 week,81%
same,"Content remaining, LC peak area percentage",18 week,80.09%
